# According to patent publication US20100061943A1, “ORAL HEALTH COMPOSITION COMPRISING ALCHEMILLA VULGARIS” (MARS INCORPORATED, priority 2006, published 2010):
# Experiments:
# Type in all cases: cell-based, cats
# Aerobes = assay: Feline plate biofilm assay (PBA): bacterial viable counts, aerobes; settings: 48 hours biofilm, extracts at 500 μg/ml, vs no active control
# Procedure: (§1) The assay requires fresh supragingival feline dental plaque and saliva for inoculation. The inoculum consists of pooled dental plaque and unfiltered saliva sampled from a group of 18 cats, varying in age, breed and oral health status.
# (§2) The plaque and saliva were resuspended in artificial saliva to form the inoculum of approximately 10% plaque and 30% saliva.
# (§3) The plate biofilm assay (PBA) utilises a 24 well plate format in which biofilms, representative of feline dental plaque, are grown on hydroxyapatite (HA) discs. Prior to being introduced to the 24 well assay plate, each HA disc is preconditioned for 2 hours in a solution of 50% filter sterilised feline saliva in artificial feline saliva. […] Each HA disc, with the exception of those being used for biomass quantification, is placed into 500 μl PBS and vortex mixed for 30 seconds to remove biofilm growth from the disc into solution. […] Biofilm-covered HA discs that are being used for biomass quantification are removed from the 24 well assay plate and used directly in the crystal violet assay.
# (§4) Viable numbers of bacteria were quantified using Columbia blood agar plates supplemented with haemin and menadione. Aerobes were counted after incubation for 2 days and anaerobes, including black pigmenting colonies (BPC), were counted after incubation at appropriate conditions for 9 days. […]
# [1] = tested on: Trypsin-like protease activity; assay: Feline plate biofilm assay (PBA): protease activity (liquid BAPNA assay); settings: 48 hours biofilm, extracts at 500 μg/ml, vs no active control
# Procedure: as §1, §2
# as §3, with “saliva. The preconditioning step stimulates the formation of a salivary pellicle on the HA disc surface.” for “saliva.”
# Trypsin-like protease activity was measured using the liquid BAPNA assay, a colourimetric assay in which the amount of trypsin present in a sample is directly proportional to the intensity of the colour developed. […]
# anaerobes = assay: Feline plate biofilm assay (PBA): bacterial viable counts, anaerobes; settings: 48 hours biofilm, extracts at 500 μg/ml, vs no active control
# Procedure: as §1, §2, §3, §4
# [2] = tested on: biofilms representative of feline dental plaque; assay: Feline plate biofilm assay (PBA): biomass quantification (crystal violet assay); settings: 48 hours biofilm, OD595, extracts at 500 μg/ml, vs no active control
# Procedure: as §1, §2
# as §3, with “saliva. The preconditioning step stimulates the formation of a salivary pellicle on the HA disc surface.” for “saliva.”
# The total amount of biofilm grown on the HA discs was quantified using the crystal violet staining method. Biomass was represented as being directly proportional to the OD reading at 595 nm (OD595) of the samples compared to controls. […]
# [3] = tested on: black pigmenting colonies (BPC); assay: Feline plate biofilm assay (PBA): bacterial viable counts, black pigmenting colonies; settings: 48 hours biofilm, extracts at 500 μg/ml, vs no active control
# Procedure: as §1, §2, §3, §4
smiles,measurement,setting,value
"[H]/N=C(\N/C(=N/[H])NCCCCCCNC(=N)NC(=N)Nc1ccc(Cl)cc1)Nc1ccc(Cl)cc1 [Chlorhexidine, chlorhexidine]",Aerobe (Log 10 reduction),Aerobes,1.91 Log 10
same,Protease (% reduction),[1],90.0%
same,Anaerobe (Log 10 reduction),anaerobes,2.16 Log 10
same,Biomass (% reduction),[2],79.0%
same,BPC (Log 10 reduction),[3],4.86 Log 10
